In EPA's ToxValDB 9.5 (doi:10.2903/j.efsa.2020.6151):

How the values were obtained:
Folsomia candida = details: chronic/long-term; duration: 28 days; reproduction
Bibionidae = details: chronic/long-term; duration: 28 days; seedling emergence
Apis mellifera = details: acute, mortality
Pimephales promelas = details: chronic/long-term; duration: 33 days; other
Colinus virginianus = details: for LD50: acute, oral, mortality
Daphnia magna = details: chronic/long-term; duration: 21 days; other
Typhlodromus pyri = test: LR50; higher = less toxic; details: not reported; mortality

Compound: C#CCOC(=O)[C@@H](C)Oc1ccc(Oc2ncc(Cl)cc2F)cc1 [Clodinafop-propargyl]
- NOEC (Folsomia candida): 1.6 mg/kg
- NOEC (Bibionidae): 1.2 mg/L
- LD50 (Apis mellifera; dermal): > 100 µg/piece
- LD50 (Apis mellifera; oral, unspecified): > 104 µg/piece
- NOEC (Pimephales promelas): 0.024 mg/L
- LD50 (Colinus virginianus; duration: 5 days, diet): > 1040 mg/kg-day
- LD50 (Colinus virginianus): 1460 mg/kg
- NOEC (Colinus virginianus; reproduction developmental): 48.9 mg/kg-day
- NOEC (Daphnia magna): 0.23 mg/L
- LD50 (Rattus norvegicus; acute, oral, mortality): > 1390 mg/kg
- NOAEL (Rattus norvegicus; chronic, duration: 2 years, M, histopathology: neoplastic): 0.03 mg/kg-day
- NOAEL (Rattus norvegicus; developmental, development): 5 mg/kg-day
- NOAEL (Rattus norvegicus; reproduction developmental, body weight): 3.4 mg/kg-day
- NOAEL (Rattus norvegicus; subchronic, duration: 90 days, organ weight): 0.92 mg/kg-day
- LR50 (Typhlodromus pyri): > 90 g/ha
